Series [1] is described as follows: DON concentration in plasma from DON-treated mice, direct versus derivatization protocols. Particulars: male, C57BL/6, mouse, in vivo, iv, 1.6 mg/kg, 1.6 mg/kg i.v., 15 min after administration, N=3, ±S.D. The procedure: Mouse plasma samples were obtained 15 min after DON administration (1.6 mg/kg, i.v.). For LC-MS bioanalysis of underivatized DON from plasma, DON was extracted from plasma with methanol, dried and resuspended in H2O and separated in a Hypercarb column. For LC-MS bioanalysis of derivatized DON from plasma, DON was derivatized in butanol containing 3N HCl for 30 min at 60° C., dried, reconstituted in 30% acetonitrile and separated by RPC. Analytes eluting after each chromatographic separation were detected by QTOF MS. N=3 for each treatment. Error bars correspond to ±S.D.
Methanol (250 μL) was added to plasma samples containing DON (50 μL); samples were centrifuged for 5 min at 16,000×g to precipitate proteins. […] Analytes were detected with an Agilent 6520 QTOF in MS mode as when analyzing derivatized DON by LC-MS.
(§1) When using plasma, DON was derivatized only using 3N HCl plus n-butanol and subsequently analyzed by LC-MS. […] After derivatization, an aliquot of the reaction mixture (2 μL) was injected and analyzed by LC-MS as stated above. The area under the curve (AUC) representing the signal intensity of the extracted ion (m/z 218.0942) for each sample was used to generate the standard curve using Agilent Mass Hunter Quantitative analysis software. […] DON concentrations in plasma samples were determined by interpolation using the standard curve. […]

Series [2] in a line: DON plasma pharmacokinetics in mice after i.v. administration (LC-MS after acidified butanol derivatization). Type of series: in vivo. Particulars: male, C57BL/6, mouse, iv, 1.6 mg/kg i.v. The method, then:
FIG. 5A and FIG. 5B show: (FIG. 5A) DON concentrations in plasma over time. Mice were administered DON at 1.6 mg/kg (i.v.). Mice were euthanized and blood was collected transcardially 0.25, 0.5, 1, 2, 4 and 6 hours after dosing. Blood was centrifuged, plasma collected and stored at −80° C. N-butanol containing 3N HCl (250 μL) was added directly to samples (50 μL) and centrifuged at 16,000×g for 5 min to precipitate proteins. An aliquot (200 μL) of the supernatant was incubated at 60° C. for 30 min. After derivatization, the samples were analyzed by LC-MS (methods); and (FIG. 5B) DON plasma to brain ratio analysis. Mice were administered DON (0.6 mg/kg, i.p.) and blood and brain were collected 1 h after DON administration. […] Resulting homogenates were centrifuged at 16,000×g for 5 min to precipitate proteins and analyzed the same way as the plasma samples. […]
as §1

The nature of series [3]: DON plasma and brain concentrations in mice after i.p. administration (LC-MS after acidified butanol derivatization). Type of series: in vivo. Particulars: for Kp at 1 h: brain/plasma. The method, then:
FIG. 5A and FIG. 5B show: (FIG. 5A) DON concentrations in plasma over time. Mice were administered DON at 1.6 mg/kg (i.v.). Mice were euthanized and blood was collected transcardially 0.25, 0.5, 1, 2, 4 and 6 hours after dosing. Blood was centrifuged, plasma collected and stored at −80° C. N-butanol containing 3N HCl (250 μL) was added directly to samples (50 μL) and centrifuged at 16,000×g for 5 min to precipitate proteins. An aliquot (200 μL) of the supernatant was incubated at 60° C. for 30 min. After derivatization, the samples were analyzed by LC-MS (methods); and (FIG. 5B) DON plasma to brain ratio analysis. Mice were administered DON (0.6 mg/kg, i.p.) and blood and brain were collected 1 h after DON administration. Plasma was isolated from blood samples as described in (FIG. 5A). Brains were collected following perfusion with PBS and frozen immediately at −80° C. Before bioanalysis, brains were weighed and n-butanol containing 3N HCl was added to each sample (5 μL/mg tissue) and homogenized using a pestle. Resulting homogenates were centrifuged at 16,000×g for 5 min to precipitate proteins and analyzed the same way as the plasma samples. All determinations in both (A) and (B) were carried out in triplicate. Error bars correspond to ±S.E.M; and
When using plasma, DON was derivatized only using 3N HCl plus n-butanol and subsequently analyzed by LC-MS. To generate the standard curve to determine DON concentrations in plasma, DON (10 μL of 1 mM water solution) was added to untreated mouse plasma (90 μL) in a low retention micro-centrifuge tube. Standard solutions (100 μL) were then prepared by serial dilution to generate concentrations from 10 nM to 100 μM at half-log intervals. Prior to extraction, frozen plasma samples were thawed on ice. N-butanol (250 μL) containing 3N HCl was added directly to standards (50 μL), vortexed and centrifuged at 16,000×g for 5 minutes in low retention micro-centrifuge tubes to precipitate proteins. […] After derivatization, an aliquot of the reaction mixture (2 μL) was injected and analyzed by LC-MS as stated above. The area under the curve (AUC) representing the signal intensity of the extracted ion (m/z 218.0942) for each sample was used to generate the standard curve using Agilent Mass Hunter Quantitative analysis software. […] DON concentrations in plasma samples were determined by interpolation using the standard curve.
When using brain, DON was derivatized only using 3N HCl plus n-butanol and subsequently analyzed by LC-MS. […] After derivatization, an aliquot of the reaction mixture (2 μL) was injected and analyzed by LC-MS as stated above. […] DON concentrations in brain samples were determined by interpolation using the standard curve. […]

SMILES strings stand for the structures. Read-outs that look alike come from different tables or passages of the source.

By AUC is commonly meant the area under the concentration-time curve, a measure of exposure. A word on the half-life: it is how long it takes for the measured level to halve. Read a high half-life as slow decline.

As to `[N-]=[N+]=CC(=O)CC[C@H](N)C(=O)O` [DON, 6-Diazo-5-oxo-L-norleucine], the concentration at 15 min in series [1] (read-out: DON concentration in plasma, derivatization method (acidified butanol, LC-MS)) is 4.2 µM; in series [1] (read-out: DON concentration in plasma, direct method (underivatized DON, Hypercarb LC-MS)), 3.9 µM. Besides, the AUC in series [2] (in vivo, 0.25-6 h, read-out: exposure of DON estimated from the area under the curve (AUC)) is 8 µM·h. Also, the half-life in series [2] is 1.2 h. The “DON concentration in brain” value in series [3] (0.6 mg/kg i.p., 1 h after administration, brains perfused with PBS, ±S.E.M.) came to 0.22±0.18 nmol/g tissue. Moreover, the Kp at 1 h in series [3] (male, C57BL/6, mouse, intraperitoneal, 0.6 mg/kg, at 1 h, read-out: brain/plasma ratio) is 0.1; in series [3] (male, C57BL/6, mouse, ip, 0.6 mg/kg i.p., 1 h, read-out: brain to plasma ratio) it was ~0.1. In addition, in series [3] (male, C57BL/6, mouse, plasma, ip, 0.6 mg/kg i.p., 1 h after administration, ±S.E.M.), the concentration at 1 h amounted to 1.7 ± 0.5 µM.

These data come from patent publication US20180267067A1, “METHODS FOR BIOANALYSIS OF 6-DIAZO-5-OXO-L-NORLEUCINE (DON) AND OTHER GLUTAMINE ANTAGONISTS” (THE JOHNS HOPKINS UNIVERSITY, priority 2015, published 2018).
